Experimental data reported in US11981658B2, “Substituted aminopyridine compounds as EGFR inhibitors” (YUHAN CORPORATION, priority 2021, dated 2024).
Like-named read-outs stand apart in the source and are kept apart here.

How the values were obtained:
EGFR L858R/C797S = EGFR L858R/C797S (Homo sapiens, UniProt P00533, C797S/L858R); assay: Biochemical EGFR kinase inhibition assay (Lance Ultra TR-FRET), double mutant L858R/C797S
How it was run: (§1)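 Enzyme reactions lasted 1 hour at room temperature with test compounds between 0.003 and 10 μM, followed by 10 mM EDTA quench.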

EGFR Del19/C797S = EGFR Del19/C797S (Homo sapiens, UniProt P00533, C797S/DEL746-750); assay: Biochemical EGFR kinase inhibition assay (Lance Ultra TR-FRET), double mutant del19/C797S
Chain of EGFR Del19/C797S (P00533 with tags, fused parts or gaps DEL746-750/C797S): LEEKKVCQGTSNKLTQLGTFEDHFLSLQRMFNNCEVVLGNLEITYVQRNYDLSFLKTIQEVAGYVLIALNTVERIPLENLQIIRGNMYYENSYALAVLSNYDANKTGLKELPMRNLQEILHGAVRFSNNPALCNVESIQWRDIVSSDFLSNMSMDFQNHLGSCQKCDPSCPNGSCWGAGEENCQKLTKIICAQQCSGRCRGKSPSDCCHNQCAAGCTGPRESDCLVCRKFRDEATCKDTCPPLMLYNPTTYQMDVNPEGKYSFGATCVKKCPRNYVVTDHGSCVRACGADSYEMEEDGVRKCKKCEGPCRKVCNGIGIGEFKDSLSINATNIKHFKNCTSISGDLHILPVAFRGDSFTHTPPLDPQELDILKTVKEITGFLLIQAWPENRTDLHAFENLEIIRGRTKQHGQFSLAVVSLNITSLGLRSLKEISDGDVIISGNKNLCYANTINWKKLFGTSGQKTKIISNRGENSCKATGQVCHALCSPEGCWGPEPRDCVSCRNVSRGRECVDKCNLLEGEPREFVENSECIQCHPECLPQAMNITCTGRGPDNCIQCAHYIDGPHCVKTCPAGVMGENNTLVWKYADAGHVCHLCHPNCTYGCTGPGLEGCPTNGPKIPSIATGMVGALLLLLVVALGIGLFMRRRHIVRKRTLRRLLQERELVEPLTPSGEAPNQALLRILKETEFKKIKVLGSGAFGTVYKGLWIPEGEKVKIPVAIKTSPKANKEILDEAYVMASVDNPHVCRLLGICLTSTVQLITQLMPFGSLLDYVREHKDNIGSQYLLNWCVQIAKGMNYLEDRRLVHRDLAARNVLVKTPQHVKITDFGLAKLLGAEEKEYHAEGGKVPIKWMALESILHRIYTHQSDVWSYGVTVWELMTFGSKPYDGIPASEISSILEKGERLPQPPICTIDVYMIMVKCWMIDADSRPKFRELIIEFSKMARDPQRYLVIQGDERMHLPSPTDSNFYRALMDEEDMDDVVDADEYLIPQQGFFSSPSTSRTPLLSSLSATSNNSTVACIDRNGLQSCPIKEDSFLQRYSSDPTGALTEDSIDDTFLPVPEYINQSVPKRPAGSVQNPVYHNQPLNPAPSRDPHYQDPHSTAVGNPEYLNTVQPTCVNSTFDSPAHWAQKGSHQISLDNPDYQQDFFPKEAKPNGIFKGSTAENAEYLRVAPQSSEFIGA
How it was run: as §1

EGFR L858R/T790M/C797S = EGFR L858R/T790M/C797S (Homo sapiens, UniProt P00533, C797S/L858R/T790M); assay: Biochemical EGFR kinase inhibition assay (Lance Ultra TR-FRET), triple mutant L858R/T790M/C797S
Chain of EGFR L858R/T790M/C797S (P00533 25-1210 T790M/C797S/L858R): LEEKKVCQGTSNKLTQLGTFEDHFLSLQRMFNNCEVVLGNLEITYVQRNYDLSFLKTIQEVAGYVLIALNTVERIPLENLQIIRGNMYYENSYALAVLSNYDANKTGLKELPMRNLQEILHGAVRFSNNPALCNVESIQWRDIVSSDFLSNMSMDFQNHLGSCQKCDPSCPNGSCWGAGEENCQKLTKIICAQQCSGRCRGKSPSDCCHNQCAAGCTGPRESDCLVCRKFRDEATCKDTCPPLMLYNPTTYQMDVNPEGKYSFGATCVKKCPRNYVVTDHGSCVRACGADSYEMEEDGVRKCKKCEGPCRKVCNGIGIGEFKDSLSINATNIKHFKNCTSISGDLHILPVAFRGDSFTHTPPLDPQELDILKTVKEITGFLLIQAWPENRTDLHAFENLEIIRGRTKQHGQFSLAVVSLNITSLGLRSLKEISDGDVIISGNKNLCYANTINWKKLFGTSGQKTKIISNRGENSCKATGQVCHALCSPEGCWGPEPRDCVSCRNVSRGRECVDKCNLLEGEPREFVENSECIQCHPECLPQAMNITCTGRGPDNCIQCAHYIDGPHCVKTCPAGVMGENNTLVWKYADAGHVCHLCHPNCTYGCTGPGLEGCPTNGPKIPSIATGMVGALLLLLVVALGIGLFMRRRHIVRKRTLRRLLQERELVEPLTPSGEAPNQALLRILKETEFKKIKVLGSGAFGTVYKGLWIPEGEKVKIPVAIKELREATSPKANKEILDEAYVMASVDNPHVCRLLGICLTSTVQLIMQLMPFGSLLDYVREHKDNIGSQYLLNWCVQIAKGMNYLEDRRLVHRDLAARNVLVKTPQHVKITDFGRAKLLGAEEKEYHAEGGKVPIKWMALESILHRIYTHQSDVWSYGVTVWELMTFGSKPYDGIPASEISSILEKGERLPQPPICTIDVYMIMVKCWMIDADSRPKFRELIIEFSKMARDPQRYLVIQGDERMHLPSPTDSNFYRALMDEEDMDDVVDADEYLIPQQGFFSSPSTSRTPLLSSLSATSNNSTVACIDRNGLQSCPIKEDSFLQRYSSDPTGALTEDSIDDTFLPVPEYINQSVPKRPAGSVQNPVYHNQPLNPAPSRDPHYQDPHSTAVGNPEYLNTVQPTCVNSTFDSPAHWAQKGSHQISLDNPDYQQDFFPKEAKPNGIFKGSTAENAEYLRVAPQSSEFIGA
How it was run: as §1

EGFR wildtype (WT) = EGFR wildtype (WT) (Homo sapiens, UniProt P00533); assay: Biochemical EGFR kinase inhibition assay (Lance Ultra TR-FRET), wildtype
Chain of EGFR wildtype (WT) (P00533 25-1210): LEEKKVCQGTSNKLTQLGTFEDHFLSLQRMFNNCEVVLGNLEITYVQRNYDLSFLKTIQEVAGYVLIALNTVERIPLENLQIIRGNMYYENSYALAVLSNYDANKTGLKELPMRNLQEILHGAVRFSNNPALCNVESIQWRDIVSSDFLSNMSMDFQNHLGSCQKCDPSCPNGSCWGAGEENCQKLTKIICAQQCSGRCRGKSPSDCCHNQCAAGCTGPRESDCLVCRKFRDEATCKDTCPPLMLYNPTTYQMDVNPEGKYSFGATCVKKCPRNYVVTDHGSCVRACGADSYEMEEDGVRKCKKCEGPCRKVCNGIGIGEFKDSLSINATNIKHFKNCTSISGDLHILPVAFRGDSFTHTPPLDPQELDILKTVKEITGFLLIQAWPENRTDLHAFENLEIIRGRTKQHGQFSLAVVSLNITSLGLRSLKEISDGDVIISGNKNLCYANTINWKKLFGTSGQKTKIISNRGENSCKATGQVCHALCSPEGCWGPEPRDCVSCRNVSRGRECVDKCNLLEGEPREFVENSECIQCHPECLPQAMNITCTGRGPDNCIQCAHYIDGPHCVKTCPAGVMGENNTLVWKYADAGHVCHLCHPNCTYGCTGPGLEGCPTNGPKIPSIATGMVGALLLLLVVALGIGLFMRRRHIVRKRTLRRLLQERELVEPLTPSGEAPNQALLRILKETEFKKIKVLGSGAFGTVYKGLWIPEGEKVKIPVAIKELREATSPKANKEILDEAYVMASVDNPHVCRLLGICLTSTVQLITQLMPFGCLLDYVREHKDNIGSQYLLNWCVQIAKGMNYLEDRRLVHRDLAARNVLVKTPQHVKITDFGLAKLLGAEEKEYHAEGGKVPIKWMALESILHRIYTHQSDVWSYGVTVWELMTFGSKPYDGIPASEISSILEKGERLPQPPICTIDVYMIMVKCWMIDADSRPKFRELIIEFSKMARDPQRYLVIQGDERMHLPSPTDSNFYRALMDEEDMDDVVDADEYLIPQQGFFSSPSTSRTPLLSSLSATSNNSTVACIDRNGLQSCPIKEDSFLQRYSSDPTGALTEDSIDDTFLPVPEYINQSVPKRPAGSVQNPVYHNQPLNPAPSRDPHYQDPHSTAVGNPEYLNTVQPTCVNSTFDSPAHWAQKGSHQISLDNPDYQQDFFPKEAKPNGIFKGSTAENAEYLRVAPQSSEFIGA
How it was run: as §1

EGFR Del19/T790M/C797S = EGFR Del19/T790M/C797S (Homo sapiens, UniProt P00533, C797S/DEL746-750/T790M); assay: Biochemical EGFR kinase inhibition assay (Lance Ultra TR-FRET), triple mutant del19/T790M/C797S
Chain of EGFR Del19/T790M/C797S (P00533 with tags, fused parts or gaps DEL746-750/T790M/C797S): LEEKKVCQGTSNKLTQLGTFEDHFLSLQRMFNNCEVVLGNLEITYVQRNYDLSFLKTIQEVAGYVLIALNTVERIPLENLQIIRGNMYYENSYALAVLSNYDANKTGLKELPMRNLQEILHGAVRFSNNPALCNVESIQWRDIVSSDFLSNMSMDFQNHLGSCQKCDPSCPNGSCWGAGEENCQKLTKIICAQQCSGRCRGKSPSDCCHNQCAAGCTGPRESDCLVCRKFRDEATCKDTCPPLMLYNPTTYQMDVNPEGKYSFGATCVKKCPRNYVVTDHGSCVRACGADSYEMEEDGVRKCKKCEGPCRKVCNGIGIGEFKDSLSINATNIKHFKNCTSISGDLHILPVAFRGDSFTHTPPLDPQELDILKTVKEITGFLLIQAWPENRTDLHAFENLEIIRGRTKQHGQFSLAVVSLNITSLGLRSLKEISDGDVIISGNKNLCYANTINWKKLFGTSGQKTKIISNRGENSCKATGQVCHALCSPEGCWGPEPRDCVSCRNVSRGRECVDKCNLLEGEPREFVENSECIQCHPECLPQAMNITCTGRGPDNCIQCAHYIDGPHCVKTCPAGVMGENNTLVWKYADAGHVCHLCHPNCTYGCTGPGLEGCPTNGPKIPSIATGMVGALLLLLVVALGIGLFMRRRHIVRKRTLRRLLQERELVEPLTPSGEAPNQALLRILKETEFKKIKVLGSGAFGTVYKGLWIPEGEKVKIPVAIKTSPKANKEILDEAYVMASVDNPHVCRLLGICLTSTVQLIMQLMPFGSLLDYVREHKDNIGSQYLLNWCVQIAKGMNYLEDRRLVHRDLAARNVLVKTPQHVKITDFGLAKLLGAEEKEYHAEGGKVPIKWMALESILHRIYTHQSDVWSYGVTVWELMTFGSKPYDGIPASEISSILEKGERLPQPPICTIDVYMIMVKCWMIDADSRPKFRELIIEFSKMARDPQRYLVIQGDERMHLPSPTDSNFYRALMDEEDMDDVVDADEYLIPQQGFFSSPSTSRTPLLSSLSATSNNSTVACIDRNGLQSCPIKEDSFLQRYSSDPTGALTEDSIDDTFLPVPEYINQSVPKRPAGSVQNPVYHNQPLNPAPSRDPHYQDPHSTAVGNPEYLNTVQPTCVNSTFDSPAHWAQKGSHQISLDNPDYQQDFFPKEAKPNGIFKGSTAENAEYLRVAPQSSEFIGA
How it was run: as §1

[1] = IC50 L858R/C797S (nM), 100 μM ATP
[2] = IC50 Del19/C797S (nM), 100 μM ATP
[3] = IC50 L858R/T790M/C797S (nM), 100 μM ATP
[4] = IC50 Del19/T790M/C797S (nM), 100 μM ATP
[5] = ATP at Km, read-out: IC50 L858R/C797S (nM), Km ATP
[6] = ATP at Km, read-out: IC50 Del19/C797S (nM), Km ATP
[7] = ATP at Km, read-out: IC50 L858R/T790M/C797S (nM), Km ATP
[8] = ATP at Km, read-out: IC50 WT (nM), Km ATP
[9] = ATP at Km, read-out: IC50 Del19/T790M/C797S (nM), Km ATP

Row | SMILES | IC50 (EGFR L858R/C797S; [1]) [nM] | IC50 (EGFR Del19/C797S; [2]) [nM] | IC50 (EGFR L858R/T790M/C797S; [3]) [nM] | IC50 (EGFR wildtype (WT); IC50 WT (nM), 100 μM ATP) [nM] | IC50 (EGFR Del19/T790M/C797S; [4]) [nM] | IC50 (EGFR L858R/C797S; [5]) [nM] | IC50 (EGFR Del19/C797S; [6]) [nM] | IC50 (EGFR L858R/T790M/C797S; [7]) [nM] | IC50 (EGFR wildtype (WT); [8]) [nM] | IC50 (EGFR Del19/T790M/C797S; [9]) [nM]
1 | CN(C)CC1(O)CCN(c2cc(Nc3ccnc(-c4cnn(S(=O)(=O)C5CC5)c4)n3)ncc2C#Cc2cnn(C(F)(F)F)c2)CC1 [Example 317, 1-(2-((2-(1-(Cyclopropylsulfonyl)-1H-pyrazol-4-yl)pyrimidin-4-yl)amino)-5-((1-(trifluoromethyl)-1H-pyrazol-4-yl)ethynyl)pyridin-4-yl)-4-((dimethylamino)methyl)piperidin-4-ol] | 334 | 245 | 35.1 | > 10000 | 16.2 | – | – | – | – | –
2 | C[C@]1(O)CC[C@@H](Nc2cc(Nc3ccnc(-c4cnn(S(=O)(=O)C5CC5)c4)n3)ncc2C#Cc2cnn(CC(F)F)c2)CC1 [Example 323, (1s,4s)-4-((2-((2-(1-(Cyclopropylsulfonyl)-1H-pyrazol-4-yl)pyrimidin-4-yl)amino)-5-((1-(2,2-difluoroethyl)-1H-pyrazol-4-yl)ethynyl)pyridin-4-yl)amino)-1-methylcyclohexan-1-ol] | 184 | 7.4 | 0.8 | > 10000 | 0.6 | 14.3 | 4.5 | 0.2 | 146 | 0.3
3 | O=S(=O)(C1CC1)n1cc(-c2nccc(Nc3cc(N[C@H]4CC[C@@H](CO)CC4)c(C#Cc4cnn(CC(F)F)c4)cn3)n2)cn1 [Example 324, ((1s,4s)-4-((2-((2-(1-(Cyclopropylsulfonyl)-1H-pyrazol-4-yl)pyrimidin-4-yl)amino)-5-((1-(2,2-difluoroethyl)-1H-pyrazol-4-yl)ethynyl)pyridin-4-yl)amino)cyclohexyl)methanol] | 20.9 | 2 | 0.5 | > 10000 | 0.3 | 3.7 | 1.3 | 0.2 | 16.5 | 0.3
4 | CC(C)(O)[C@H]1CC[C@@H](Nc2cc(Nc3ccnc(-c4cnn(S(=O)(=O)C5CC5)c4)n3)ncc2C#Cc2cnn(CC(F)F)c2)CC1 [Example 325, 2-((1s,4s)-4-((2-((2-(1-(Cyclopropylsulfonyl)-1H-pyrazol-4-yl)pyrimidin-4-yl)amino)-5-((1-(2,2-difluoroethyl)-1H-pyrazol-4-yl)ethynyl)pyridin-4-yl)amino)cyclohexyl)propan-2-ol] | 89.8 | 6.9 | 2.1 | > 10000 | 1.1 | 16.3 | 6.2 | 0.8 | 115 | 0.9
5 | CC1(O)CCC(Nc2cc(Nc3ccnc(-c4cnn(S(=O)(=O)C5CC5)c4)n3)ncc2C#Cc2cnn(C3CC3(F)F)c2)CC1 (stereo not shown) [Example 326, (1s,4s)-4-((2-((2-(1-(Cyclopropylsulfonyl)-1H-pyrazol-4-yl)pyrimidin-4-yl)amino)-5-((1-(2,2-difluorocyclopropyl)-1H-pyrazol-4-yl)ethynyl)pyridin-4-yl)amino)-1-methylcyclohexan-1-ol] | 145 | 19.2 | 2.1 | > 10000 | 1.9 | 5.3 | 10.3 | 0.6 | 17.6 | 1.9
6 | O=S(=O)(C1CC1)n1cc(-c2nccc(Nc3cc(NC4CCC(CO)CC4)c(C#Cc4cnn(C5CC5(F)F)c4)cn3)n2)cn1 (stereo not shown) [Example 327, ((1s,4s)-4-((2-((2-(1-(Cyclopropylsulfonyl)-1H-pyrazol-4-yl)pyrimidin-4-yl)amino)-5-((1-(2,2-difluorocyclopropyl)-1H-pyrazol-4-yl)ethynyl)pyridin-4-yl)amino)cyclohexyl)methanol] | 39.3 | 4.8 | 1.5 | > 10000 | 2.5 | 2.1 | 1.6 | 0.8 | 11.9 | 2.2
7 | CC(O)C1CCN(c2cc(Nc3ccnc(-c4cnn(S(=O)(=O)C5CC5)c4)n3)ncc2C#Cc2cnn(C(F)(F)F)c2)CC1 (stereo not shown) [Example 328, 1-(1-(2-((2-(1-(Cyclopropylsulfonyl)-1H-pyrazol-4-yl)pyrimidin-4-yl)amino)-5-((1-(trifluoromethyl)-1H-pyrazol-4-yl)ethynyl)pyridin-4-yl)piperidin-4-yl)ethan-1-ol] | 47.4 | 648 | 22.7 | > 10000 | 3.1 | 25.8 | 36.6 | 1 | 162 | 5.3
8 | CC(C)(O)C1CCN(c2cc(Nc3ccnc(-c4cnn(S(=O)(=O)C5CC5)c4)n3)ncc2C#Cc2cnn(C(F)(F)F)c2)CC1 [Example 329, 2-(1-(2-((2-(1-(Cyclopropylsulfonyl)-1H-pyrazol-4-yl)pyrimidin-4-yl)amino)-5-((1-(trifluoromethyl)-1H-pyrazol-4-yl)ethynyl)pyridin-4-yl)piperidin-4-yl)propan-2-ol] | 125 | 1080 | 3 | > 10000 | 5.9 | 47.6 | 81.8 | 1.7 | 700 | 21.2
9 | O=S(=O)(C1CC1)n1cc(-c2nccc(Nc3cc(N4CCC(C5(O)CC5)CC4)c(C#Cc4cnn(C(F)(F)F)c4)cn3)n2)cn1 [Example 330, 1-(1-(2-((2-(1-(Cyclopropylsulfonyl)-1H-pyrazol-4-yl)pyrimidin-4-yl)amino)-5-((1-(trifluoromethyl)-1H-pyrazol-4-yl)ethynyl)pyridin-4-yl)piperidin-4-yl)cyclopropan-1-ol] | 45.5 | 771 | 6.2 | > 10000 | 5.2 | 17.6 | 55.5 | 2.2 | 272 | 1.9

More lines, now with the values ahead:

Row | IC50 (EGFR L858R/C797S; [1]) [nM] | IC50 (EGFR Del19/C797S; [2]) [nM] | IC50 (EGFR L858R/T790M/C797S; [3]) [nM] | IC50 (EGFR wildtype (WT); IC50 WT (nM), 100 μM ATP) [nM] | IC50 (EGFR Del19/T790M/C797S; [4]) [nM] | IC50 (EGFR L858R/C797S; [5]) [nM] | IC50 (EGFR Del19/C797S; [6]) [nM] | IC50 (EGFR L858R/T790M/C797S; [7]) [nM] | IC50 (EGFR wildtype (WT); [8]) [nM] | IC50 (EGFR Del19/T790M/C797S; [9]) [nM] | SMILES
10 | 72.8 | 56.7 | 5.8 | > 10000 | 4.7 | – | – | – | – | – | CN(C)CC1(O)CCN(c2cc(Nc3ccnc(-c4cnn(S(=O)(=O)C5CC5)c4)n3)ncc2C#Cc2cnn(C3CC3)c2)CC1 [Example 316, 1-(5-((1-Cyclopropyl-1H-pyrazol-4-yl)ethynyl)-2-((2-(1-(cyclopropylsulfonyl)-1H-pyrazol-4-yl)pyrimidin-4-yl)amino)pyridin-4-yl)-4-((dimethylamino)methyl)piperidin-4-ol]
11 | 18.4 | 4.2 | 0.4 | 5990 | 0.3 | – | – | – | – | – | CN1CCC2(CC1)CCN(c1cc(Nc3ccnc(-c4cnn(S(=O)(=O)C5CC5)c4)n3)ncc1C#Cc1cnn(C)c1)CC2 [Example 318, 2-(1-(Cyclopropylsulfonyl)-1H-pyrazol-4-yl)-N-(5-((1-methyl-1H-pyrazol-4-yl)ethynyl)-4-(9-methyl-3,9-diazaspiro[5.5]undecan-3-yl)pyridin-2-yl)pyrimidin-4-amine]
12 | 17.1 | 3.2 | 0.3 | 4540 | 0.3 | – | – | – | – | – | CN1CCC2(CC1)CCN(c1cc(Nc3ccnc(-c4cnn(S(=O)(=O)C5CC5)c4)n3)ncc1C#Cc1cnn(C3CC3)c1)CC2 [Example 319, N-(5-((1-Cyclopropyl-1H-pyrazol-4-yl)ethynyl)-4-(9-methyl-3,9-diazaspiro[5.5]undecan-3-yl)pyridin-2-yl)-2-(1-(cyclopropylsulfonyl)-1H-pyrazol-4-yl)pyrimidin-4-amine]
13 | 44 | 10.5 | 0.8 | 5670 | 1 | – | – | – | – | – | CN1CCC2(CC1)CCN(c1cc(Nc3ccnc(-c4cnn(S(=O)(=O)C5CC5)c4)n3)ncc1C#Cc1cnn(CC3CC3)c1)CC2 [Example 320, N-(5-((1-(Cyclopropylmethyl)-1H-pyrazol-4-yl)ethynyl)-4-(9-methyl-3,9-diazaspiro[5.5]undecan-3-yl)pyridin-2-yl)-2-(1-(cyclopropylsulfonyl)-1H-pyrazol-4-yl)pyrimidin-4-amine]
14 | 45.2 | 8 | 1.2 | 5850 | 0.7 | – | – | – | – | – | CN1CCC2(CC1)CCN(c1cc(Nc3ccnc(-c4cnn(S(=O)(=O)C5CC5)c4)n3)ncc1C#Cc1cnn(C(F)F)c1)CC2 [Example 321, 2-(1-(Cyclopropylsulfonyl)-1H-pyrazol-4-yl)-N-(5-((1-(difluoromethyl)-1H-pyrazol-4-yl)ethynyl)-4-(9-methyl-3,9-diazaspiro[5.5]undecan-3-yl)pyridin-2-yl)pyrimidin-4-amine]
15 | 18 | 6 | 0.4 | 4540 | 0.5 | – | – | – | – | – | CN1CCC2(CC1)CCN(c1cc(Nc3ccnc(-c4cnn(S(=O)(=O)C5CC5)c4)n3)ncc1C#Cc1cnn(CC(F)F)c1)CC2 [Example 322, 2-(1-(Cyclopropylsulfonyl)-1H-pyrazol-4-yl)-N-(5-((1-(2,2-difluoroethyl)-1H-pyrazol-4-yl)ethynyl)-4-(9-methyl-3,9-diazaspiro[5.5]undecan-3-yl)pyridin-2-yl)pyrimidin-4-amine]
